Measurements from patent publication US12281080B2, “Quinoline-based compounds and methods of inhibiting CDK8/19” (University of South Carolina, priority 2018, dated 2025).

Columns and labels:
YES (YES1) = YES (YES1) (Homo sapiens (Human), UniProt P07947); experiment: KINOMEscan scanMAX; type: binding; conditions: 2000 nM; read-out: Percent Control
MST3 (STK24) = MST3 (STK24) (Homo sapiens (Human), UniProt Q9Y6E0); experiment: KINOMEscan scanMAX; type: binding; conditions: 2000 nM; read-out: Percent Control
Chain of MST3 (STK24) (Q9Y6E0 whole entry): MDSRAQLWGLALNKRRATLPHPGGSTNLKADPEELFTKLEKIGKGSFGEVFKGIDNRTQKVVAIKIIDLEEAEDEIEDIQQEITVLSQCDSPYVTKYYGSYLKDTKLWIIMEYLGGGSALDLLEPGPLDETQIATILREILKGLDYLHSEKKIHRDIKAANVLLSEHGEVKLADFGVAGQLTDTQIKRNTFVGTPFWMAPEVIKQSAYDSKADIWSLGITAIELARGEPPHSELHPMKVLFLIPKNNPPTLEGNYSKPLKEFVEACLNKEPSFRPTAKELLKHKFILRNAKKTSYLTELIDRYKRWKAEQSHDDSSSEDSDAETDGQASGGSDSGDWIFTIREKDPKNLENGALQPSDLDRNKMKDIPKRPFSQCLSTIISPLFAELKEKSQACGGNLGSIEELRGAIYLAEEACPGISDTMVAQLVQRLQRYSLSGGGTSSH

PIKFYVE = PIKFYVE (Homo sapiens (Human), UniProt Q9Y2I7); experiment: KINOMEscan scanMAX; type: binding; conditions: 2000 nM; read-out: Percent Control
PIP5K2C (PIP4K2C) = PIP5K2C (PIP4K2C) (Homo sapiens (Human), UniProt Q8TBX8); experiment: KINOMEscan scanMAX; type: binding; conditions: 2000 nM; read-out: Percent Control
PLK2 = PLK2 (Homo sapiens (Human), UniProt Q9NYY3); experiment: KINOMEscan scanMAX; type: binding; conditions: 2000 nM; read-out: Percent Control
[1] = system: 4T1 murine triple-negative breast cancer; experiment: 4T1 breast cancer metastasis survival model; type: in vivo; conditions: 40 mg/kg, oral, b.i.d., female Balb/c mice after primary tumor removal
Experimental: 4T1 is a murine triple-negative breast cancer (TNBC) cell line, which is highly metastatic to the lungs. 4T1 cells were injected orthotopically in the mammary fat pad of female Balb/c mice and the primary tumors were surgically removed when tumor sizes reach 500-600 mm^3. Mice were then separated into two groups (FIG. 12A, n=8), which were then treated with vehicle (5% dextrose) or Senexin C (40 mg/kg, oral, b.i.d.).

ALK(C1156Y) = ALK(C1156Y) (Homo sapiens (Human), UniProt Q9UM73, C1156Y); experiment: KINOMEscan scanMAX; type: binding; conditions: 2000 nM; read-out: Percent Control
[2] = biological target: ABL1(T315I)-nonphosphorylated (Homo sapiens (Human), UniProt P00519, T315I); experiment: KINOMEscan scanMAX; type: binding; conditions: 2000 nM; read-out: Percent Control
[3] = biological target: EGFR(L747-S752del, P753S) (Homo sapiens (Human), UniProt P00533, DEL747-752/P753S); experiment: KINOMEscan scanMAX; type: binding; conditions: 2000 nM; read-out: Percent Control
ACVR1 = ACVR1 (Homo sapiens (Human), UniProt Q04771); experiment: KINOMEscan scanMAX; type: binding; conditions: 2000 nM; read-out: Percent Control
Chain of ACVR1 (Q04771 21-509): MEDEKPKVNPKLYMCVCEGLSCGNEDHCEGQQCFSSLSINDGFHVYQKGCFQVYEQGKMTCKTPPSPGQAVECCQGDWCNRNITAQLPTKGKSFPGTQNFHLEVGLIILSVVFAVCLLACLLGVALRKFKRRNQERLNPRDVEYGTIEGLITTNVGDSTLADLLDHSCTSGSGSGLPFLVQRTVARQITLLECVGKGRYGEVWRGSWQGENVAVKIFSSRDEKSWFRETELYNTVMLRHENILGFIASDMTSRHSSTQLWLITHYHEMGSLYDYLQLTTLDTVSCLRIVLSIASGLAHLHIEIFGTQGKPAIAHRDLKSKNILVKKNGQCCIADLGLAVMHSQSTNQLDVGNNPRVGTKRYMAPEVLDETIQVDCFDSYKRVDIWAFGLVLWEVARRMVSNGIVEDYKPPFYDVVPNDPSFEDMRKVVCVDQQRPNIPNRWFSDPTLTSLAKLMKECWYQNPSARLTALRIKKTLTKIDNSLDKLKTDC

MKNK2 = MKNK2 (Homo sapiens (Human), UniProt Q9HBH9); experiment: KINOMEscan scanMAX; type: binding; conditions: 2000 nM; read-out: Percent Control
Chain of MKNK2 (Q9HBH9 whole entry): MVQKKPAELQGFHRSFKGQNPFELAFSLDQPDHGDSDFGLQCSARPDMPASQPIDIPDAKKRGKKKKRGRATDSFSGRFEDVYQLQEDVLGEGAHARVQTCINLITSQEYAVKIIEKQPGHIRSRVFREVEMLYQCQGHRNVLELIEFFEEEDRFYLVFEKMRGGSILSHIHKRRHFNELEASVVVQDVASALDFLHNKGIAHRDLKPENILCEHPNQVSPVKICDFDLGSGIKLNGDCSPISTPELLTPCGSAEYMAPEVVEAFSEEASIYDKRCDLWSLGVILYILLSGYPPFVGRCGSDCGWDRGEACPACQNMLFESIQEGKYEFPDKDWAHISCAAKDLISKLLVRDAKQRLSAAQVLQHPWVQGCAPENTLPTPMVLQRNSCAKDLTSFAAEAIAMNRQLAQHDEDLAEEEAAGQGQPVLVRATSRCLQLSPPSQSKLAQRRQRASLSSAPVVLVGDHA

KIT(D816V) = KIT(D816V) (Homo sapiens (Human), UniProt P10721, D816V); experiment: KINOMEscan scanMAX; type: binding; conditions: 2000 nM; read-out: Percent Control
CAMK4 = CAMK4 (Homo sapiens (Human), UniProt Q16566); experiment: KINOMEscan scanMAX; type: binding; conditions: 2000 nM; read-out: Percent Control
BMPR1A = BMPR1A (Homo sapiens (Human), UniProt P36894); experiment: KINOMEscan scanMAX; type: binding; conditions: 2000 nM; read-out: Percent Control
Chain of BMPR1A (P36894 24-532): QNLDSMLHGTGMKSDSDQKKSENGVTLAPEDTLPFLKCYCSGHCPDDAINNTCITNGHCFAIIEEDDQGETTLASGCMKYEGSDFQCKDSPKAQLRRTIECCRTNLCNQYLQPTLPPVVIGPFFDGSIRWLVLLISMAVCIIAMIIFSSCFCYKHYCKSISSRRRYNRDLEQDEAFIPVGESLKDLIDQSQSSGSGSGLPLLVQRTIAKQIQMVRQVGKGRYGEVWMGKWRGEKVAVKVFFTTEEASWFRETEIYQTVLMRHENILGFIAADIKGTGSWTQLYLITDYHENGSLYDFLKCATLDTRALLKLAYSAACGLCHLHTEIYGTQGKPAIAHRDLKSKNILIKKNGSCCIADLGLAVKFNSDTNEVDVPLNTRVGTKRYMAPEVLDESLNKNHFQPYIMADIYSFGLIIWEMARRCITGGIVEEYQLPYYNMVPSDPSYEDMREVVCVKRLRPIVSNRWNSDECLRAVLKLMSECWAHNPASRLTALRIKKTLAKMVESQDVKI

CSNK1E = CSNK1E (Homo sapiens (Human), UniProt P49674); experiment: KINOMEscan scanMAX; type: binding; conditions: 2000 nM; read-out: Percent Control
MYO3B = MYO3B (Homo sapiens (Human), UniProt Q8WXR4); experiment: DiscoverX Kd assay; conditions: average from duplicate measurements
TYRO3 = TYRO3 (Homo sapiens (Human), UniProt Q06418); experiment: KINOMEscan scanMAX; type: binding; conditions: 2000 nM; read-out: Percent Control
Chain of TYRO3 (Q06418 41-890): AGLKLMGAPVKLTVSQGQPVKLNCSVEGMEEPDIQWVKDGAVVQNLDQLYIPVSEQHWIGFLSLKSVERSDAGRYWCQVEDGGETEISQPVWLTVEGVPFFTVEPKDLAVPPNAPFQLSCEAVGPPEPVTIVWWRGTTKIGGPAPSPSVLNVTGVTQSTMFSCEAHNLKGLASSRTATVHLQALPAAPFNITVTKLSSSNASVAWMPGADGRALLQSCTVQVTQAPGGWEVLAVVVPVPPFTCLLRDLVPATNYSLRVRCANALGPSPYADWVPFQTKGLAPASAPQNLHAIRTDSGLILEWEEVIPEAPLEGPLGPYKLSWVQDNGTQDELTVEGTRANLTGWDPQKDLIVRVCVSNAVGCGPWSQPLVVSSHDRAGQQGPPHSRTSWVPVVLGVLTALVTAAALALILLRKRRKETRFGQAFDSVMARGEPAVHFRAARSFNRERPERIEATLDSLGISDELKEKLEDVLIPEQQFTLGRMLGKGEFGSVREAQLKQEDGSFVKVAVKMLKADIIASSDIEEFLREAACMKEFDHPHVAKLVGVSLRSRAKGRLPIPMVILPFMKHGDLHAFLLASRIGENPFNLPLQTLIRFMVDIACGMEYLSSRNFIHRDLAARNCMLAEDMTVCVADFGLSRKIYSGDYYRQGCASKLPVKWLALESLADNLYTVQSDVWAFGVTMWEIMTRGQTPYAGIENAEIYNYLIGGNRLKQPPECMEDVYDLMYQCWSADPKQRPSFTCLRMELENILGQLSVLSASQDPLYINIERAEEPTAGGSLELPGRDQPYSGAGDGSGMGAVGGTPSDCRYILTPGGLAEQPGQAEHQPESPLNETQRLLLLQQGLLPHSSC

MAP4K4 = MAP4K4 (Homo sapiens (Human), UniProt O95819); experiment: KINOMEscan scanMAX; type: binding; conditions: 2000 nM; read-out: Percent Control
[4] = biological target: GCN2(Kin.Dom.2, S808G) (EIF2AK4) (Homo sapiens (Human), UniProt Q9P2K8, S808G); experiment: KINOMEscan scanMAX; type: binding; conditions: 2000 nM; read-out: Percent Control
Chain of GCN2(Kin.Dom.2, S808G) (EIF2AK4) (Q9P2K8 590-1001 S808G): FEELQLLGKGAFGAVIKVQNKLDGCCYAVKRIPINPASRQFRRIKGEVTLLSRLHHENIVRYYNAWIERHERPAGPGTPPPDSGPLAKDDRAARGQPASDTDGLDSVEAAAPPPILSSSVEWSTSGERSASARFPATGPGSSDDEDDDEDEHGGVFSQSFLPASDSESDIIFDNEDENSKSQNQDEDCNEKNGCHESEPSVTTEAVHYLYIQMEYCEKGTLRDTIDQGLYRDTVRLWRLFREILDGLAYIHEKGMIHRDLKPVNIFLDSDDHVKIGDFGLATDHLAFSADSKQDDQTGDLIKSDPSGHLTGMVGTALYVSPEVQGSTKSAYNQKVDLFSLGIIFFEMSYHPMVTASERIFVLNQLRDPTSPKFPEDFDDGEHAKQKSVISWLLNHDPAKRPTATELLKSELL

DMPK = DMPK (Homo sapiens (Human), UniProt Q09013); experiment: KINOMEscan scanMAX; type: binding; conditions: 2000 nM; read-out: Percent Control
PHKG1 = PHKG1 (Homo sapiens (Human), UniProt Q16816); experiment: KINOMEscan scanMAX; type: binding; conditions: 2000 nM; read-out: Percent Control
Chain of PHKG1 (Q16816 whole entry): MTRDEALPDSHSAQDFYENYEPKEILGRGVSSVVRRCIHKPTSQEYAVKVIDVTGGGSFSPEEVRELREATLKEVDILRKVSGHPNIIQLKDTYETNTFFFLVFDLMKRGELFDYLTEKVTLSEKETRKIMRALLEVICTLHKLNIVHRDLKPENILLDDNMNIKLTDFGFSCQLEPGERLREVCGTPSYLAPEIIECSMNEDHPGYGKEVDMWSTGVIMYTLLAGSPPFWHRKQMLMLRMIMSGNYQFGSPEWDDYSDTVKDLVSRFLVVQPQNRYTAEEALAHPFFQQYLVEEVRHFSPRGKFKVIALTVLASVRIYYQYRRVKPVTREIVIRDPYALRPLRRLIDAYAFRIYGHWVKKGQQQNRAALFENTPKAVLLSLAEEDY

LKB1 (STK11) = LKB1 (STK11) (Homo sapiens (Human), UniProt Q15831); experiment: KINOMEscan scanMAX; type: binding; conditions: 2000 nM; read-out: Percent Control
Chain of LKB1 (STK11) (Q15831 whole entry): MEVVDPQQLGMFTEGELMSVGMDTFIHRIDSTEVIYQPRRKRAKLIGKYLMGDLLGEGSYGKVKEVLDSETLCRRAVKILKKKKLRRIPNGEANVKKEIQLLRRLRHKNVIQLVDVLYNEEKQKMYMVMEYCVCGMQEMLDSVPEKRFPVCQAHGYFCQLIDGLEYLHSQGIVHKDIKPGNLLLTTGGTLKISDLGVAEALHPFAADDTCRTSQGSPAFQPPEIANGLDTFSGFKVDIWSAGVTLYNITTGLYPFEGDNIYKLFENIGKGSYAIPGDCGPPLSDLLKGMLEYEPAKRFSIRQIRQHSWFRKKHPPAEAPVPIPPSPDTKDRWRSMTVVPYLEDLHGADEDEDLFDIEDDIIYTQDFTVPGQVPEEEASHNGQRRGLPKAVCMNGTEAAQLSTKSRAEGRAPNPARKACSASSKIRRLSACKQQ

TRKB (NTRK2) = TRKB (NTRK2) (Homo sapiens (Human), UniProt Q16620); experiment: KINOMEscan scanMAX; type: binding; conditions: 2000 nM; read-out: Percent Control
FES = FES (Homo sapiens (Human), UniProt P07332); experiment: KINOMEscan scanMAX; type: binding; conditions: 2000 nM; read-out: Percent Control
ABL1-nonphosphorylated = ABL1-nonphosphorylated (Homo sapiens (Human), UniProt P00519); experiment: KINOMEscan scanMAX; type: binding; conditions: 2000 nM; read-out: Percent Control
MAP4K3 = MAP4K3 (Homo sapiens (Human), UniProt Q8IVH8); experiment: KINOMEscan scanMAX; type: binding; conditions: 2000 nM; read-out: Percent Control
LRRK2(G2019S) = LRRK2(G2019S) (Homo sapiens (Human), UniProt Q5S007, G2019S); experiment: KINOMEscan scanMAX; type: binding; conditions: 2000 nM; read-out: Percent Control
AMPK-alpha2 (PRKAA2) = AMPK-alpha2 (PRKAA2) (Homo sapiens (Human), UniProt P54646); experiment: KINOMEscan scanMAX; type: binding; conditions: 2000 nM; read-out: Percent Control
Chain of AMPK-alpha2 (PRKAA2) (P54646 whole entry): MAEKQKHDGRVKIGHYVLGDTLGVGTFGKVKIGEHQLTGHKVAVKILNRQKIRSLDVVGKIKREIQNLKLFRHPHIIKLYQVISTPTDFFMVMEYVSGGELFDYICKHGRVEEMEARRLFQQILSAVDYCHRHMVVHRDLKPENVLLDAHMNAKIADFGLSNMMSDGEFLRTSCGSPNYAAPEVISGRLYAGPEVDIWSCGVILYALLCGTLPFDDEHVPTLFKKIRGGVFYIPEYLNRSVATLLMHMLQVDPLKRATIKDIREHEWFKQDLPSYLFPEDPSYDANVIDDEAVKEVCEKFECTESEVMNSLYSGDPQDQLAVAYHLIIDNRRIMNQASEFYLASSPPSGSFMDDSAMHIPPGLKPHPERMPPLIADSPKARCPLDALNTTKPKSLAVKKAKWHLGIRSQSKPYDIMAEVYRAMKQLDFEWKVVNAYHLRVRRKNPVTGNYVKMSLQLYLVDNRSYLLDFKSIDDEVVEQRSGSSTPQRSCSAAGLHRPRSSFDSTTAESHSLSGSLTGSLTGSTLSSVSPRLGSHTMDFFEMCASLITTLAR

NDR2 (STK38L) = NDR2 (STK38L) (Homo sapiens (Human), UniProt Q9Y2H1); experiment: KINOMEscan scanMAX; type: binding; conditions: 2000 nM; read-out: Percent Control
FLT3-autoinhibited = FLT3-autoinhibited (Homo sapiens (Human), UniProt P36888); experiment: KINOMEscan scanMAX; type: binding; conditions: 2000 nM; read-out: Percent Control
Chain of FLT3-autoinhibited (P36888 564-993 limits assumed): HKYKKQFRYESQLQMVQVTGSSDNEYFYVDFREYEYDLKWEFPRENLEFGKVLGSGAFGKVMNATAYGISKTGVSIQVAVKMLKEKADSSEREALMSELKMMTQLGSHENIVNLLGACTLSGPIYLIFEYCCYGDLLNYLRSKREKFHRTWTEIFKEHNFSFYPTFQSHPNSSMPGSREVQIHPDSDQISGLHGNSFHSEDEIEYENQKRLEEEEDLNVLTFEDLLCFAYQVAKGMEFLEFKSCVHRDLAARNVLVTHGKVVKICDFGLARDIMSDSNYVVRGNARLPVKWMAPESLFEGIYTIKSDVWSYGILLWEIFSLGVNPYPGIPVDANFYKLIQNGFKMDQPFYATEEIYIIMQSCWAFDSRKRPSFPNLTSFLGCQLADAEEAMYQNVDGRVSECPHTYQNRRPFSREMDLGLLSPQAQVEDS

CDK8 = CDK8 (Homo sapiens (Human), UniProt P49336); experiment: KINOMEscan scanMAX; type: binding; conditions: 2000 nM; read-out: Percent Control
[5] = biological target: RPS6KA5(Kin.Dom.1-N-terminal) (Homo sapiens (Human), UniProt O75582); experiment: KINOMEscan scanMAX; type: binding; conditions: 2000 nM; read-out: Percent Control
PCTK1 (CDK16) = PCTK1 (CDK16) (Homo sapiens (Human), UniProt Q00536); experiment: KINOMEscan scanMAX; type: binding; conditions: 2000 nM; read-out: Percent Control
DYRK1A = DYRK1A (Homo sapiens (Human), UniProt Q13627); experiment: KINOMEscan scanMAX; type: binding; conditions: 2000 nM; read-out: Percent Control
CSNK2A1 = CSNK2A1 (Homo sapiens (Human), UniProt P68400); experiment: KINOMEscan scanMAX; type: binding; conditions: 2000 nM; read-out: Percent Control
EGFR(L858R) = EGFR(L858R) (Homo sapiens (Human), UniProt P00533, L858R); experiment: KINOMEscan scanMAX; type: binding; conditions: 2000 nM; read-out: Percent Control

In the case of `CN1CCN(C(=O)c2ccc3cc(CCNc4ccnc5ccc(C#N)cc45)ccc3c2)CC1` [compound 6148, 4-((2-(6-(4-methylpiperazine-1-carbonyl)naphthalen-2-yl)ethyl)amino)quinoline-6-carbonitrile], the remaining binding at 2 µM (YES (YES1)) is reported as 100%, the remaining binding at 2 µM (MST3 (STK24)) is reported as 100% and the remaining binding at 2 µM (PIKFYVE) is reported as 86%. For the same compound, the remaining binding at 2 µM (PIP5K2C (PIP4K2C)) was 84%, the remaining binding at 2 µM (PLK2) was 80% and the “Mouse survival of the metastatic disease” value [1] was “significantly increased”. It also gave a remaining binding at 2 µM (ALK(C1156Y)) of 83%, a remaining binding at 2 µM [2] of 90% and a remaining binding at 2 µM [3] of 98%. It also gave a remaining binding at 2 µM (ACVR1) of 92%, a remaining binding at 2 µM (MKNK2) of 71% and a remaining binding at 2 µM (KIT(D816V)) of 100%. It also gave a remaining binding at 2 µM (CAMK4) of 95%, a remaining binding at 2 µM (BMPR1A) of 95% and a remaining binding at 2 µM (CSNK1E) of 81%. The Kd (MYO3B) was > 30 µM, the remaining binding at 2 µM (TYRO3) was 77% and the remaining binding at 2 µM (MAP4K4) was 93%. The remaining binding at 2 µM [4] was 93%, the remaining binding at 2 µM (DMPK) was 98% and the remaining binding at 2 µM (PHKG1) was 95%. It also gave a remaining binding at 2 µM (LKB1 (STK11)) of 87%, a remaining binding at 2 µM (TRKB (NTRK2)) of 57% and a remaining binding at 2 µM (FES) of 81%. The remaining binding at 2 µM (ABL1-nonphosphorylated) was 71%, the remaining binding at 2 µM (MAP4K3) was 100% and the remaining binding at 2 µM (LRRK2(G2019S)) was 56%. It also gave a remaining binding at 2 µM (AMPK-alpha2 (PRKAA2)) of 42%, a remaining binding at 2 µM (NDR2 (STK38L)) of 96% and a remaining binding at 2 µM (FLT3-autoinhibited) of 88%. For the same compound, the remaining binding at 2 µM (CDK8) was 1.3%, the remaining binding at 2 µM [5] was 86% and the remaining binding at 2 µM (PCTK1 (CDK16)) was 68%. For the same compound, the remaining binding at 2 µM (DYRK1A) was 63%, the remaining binding at 2 µM (CSNK2A1) was 56% and the remaining binding at 2 µM (EGFR(L858R)) was 93%.
